Measured values published in US20100137315A1, “Sphingosine Kinase Inhibitors and Methods of Their Use” (APOGEE BIOTECHNOLOGY CORPORATION, priority 2005, published 2010).

Experiments:
[1] = target: Abl (Homo sapiens, UniProt P00519); assay: Kinase selectivity panel; type: biochemical; settings: read-out: percent of control activity of Abl
Method: (§1) A common problem with previous attempts to develop protein kinase inhibitors is the lack of selectivity toward the target kinase since the majority of these compounds interact with nucleotide-binding domains that are highly conserved among kinases. To determine if compound of this invention are non-selective kinase inhibitors, the effects of the SK inhibitor, Compound 73, on a diverse panel of 20 purified kinases was determined. The compound was tested at a single concentration of 50 μM.

[2] = target: Aurora-A (Homo sapiens, UniProt O14965); assay: Kinase selectivity panel; type: biochemical; settings: read-out: percent of control activity of Aurora-A
Sequence of Aurora-A (O14965 whole entry): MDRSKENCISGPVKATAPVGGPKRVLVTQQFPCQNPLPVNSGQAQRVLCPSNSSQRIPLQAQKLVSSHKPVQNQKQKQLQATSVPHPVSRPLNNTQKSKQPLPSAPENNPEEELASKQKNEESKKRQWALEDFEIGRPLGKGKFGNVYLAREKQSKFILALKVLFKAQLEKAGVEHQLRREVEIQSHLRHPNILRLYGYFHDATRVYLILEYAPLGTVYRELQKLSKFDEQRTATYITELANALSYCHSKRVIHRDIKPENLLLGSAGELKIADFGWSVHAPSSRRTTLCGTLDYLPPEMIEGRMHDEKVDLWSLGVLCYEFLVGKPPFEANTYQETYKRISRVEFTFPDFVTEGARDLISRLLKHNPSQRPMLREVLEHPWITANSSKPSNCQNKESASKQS
Method: as §1

[3] = target: CDK1/cyclinB (Homo sapiens, UniProt P06493); assay: Kinase selectivity panel; type: biochemical; settings: read-out: percent of control activity of CDK1/cyclinB
Sequence of CDK1/cyclinB (P06493 whole entry, species assumed): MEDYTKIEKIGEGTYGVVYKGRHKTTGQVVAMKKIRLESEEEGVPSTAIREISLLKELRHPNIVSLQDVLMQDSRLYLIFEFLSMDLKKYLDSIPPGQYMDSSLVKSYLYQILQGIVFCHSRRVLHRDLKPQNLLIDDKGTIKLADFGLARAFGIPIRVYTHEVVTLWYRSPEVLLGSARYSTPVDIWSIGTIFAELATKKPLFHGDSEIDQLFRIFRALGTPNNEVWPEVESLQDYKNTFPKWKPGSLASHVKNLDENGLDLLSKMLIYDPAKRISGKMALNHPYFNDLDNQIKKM
Sequence of CDK1/cyclinB (P14635 whole entry partner, species assumed): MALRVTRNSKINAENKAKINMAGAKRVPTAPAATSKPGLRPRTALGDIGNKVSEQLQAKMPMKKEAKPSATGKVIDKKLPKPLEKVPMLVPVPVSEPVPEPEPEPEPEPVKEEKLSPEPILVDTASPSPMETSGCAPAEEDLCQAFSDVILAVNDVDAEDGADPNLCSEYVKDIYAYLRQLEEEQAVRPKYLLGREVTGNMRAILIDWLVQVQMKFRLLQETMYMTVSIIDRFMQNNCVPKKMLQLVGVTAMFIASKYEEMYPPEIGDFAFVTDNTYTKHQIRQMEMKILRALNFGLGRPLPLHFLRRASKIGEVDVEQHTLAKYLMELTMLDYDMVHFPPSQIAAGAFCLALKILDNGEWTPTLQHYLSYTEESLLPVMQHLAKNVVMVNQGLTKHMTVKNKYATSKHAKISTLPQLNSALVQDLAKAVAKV
Method: as §1

[4] = target: CDK2/cyclinE (Homo sapiens, UniProt P24941); assay: Kinase selectivity panel; type: biochemical; settings: read-out: percent of control activity of CDK2/cyclinE
Method: as §1

[5] = target: EFGR (Homo sapiens, UniProt P00533); assay: Kinase selectivity panel; type: biochemical; settings: read-out: percent of control activity of EFGR
Method: as §1

[6] = target: Fyn (Homo sapiens, UniProt P06241); assay: Kinase selectivity panel; type: biochemical; settings: read-out: percent of control activity of Fyn
Sequence of Fyn (P06241 whole entry, species assumed): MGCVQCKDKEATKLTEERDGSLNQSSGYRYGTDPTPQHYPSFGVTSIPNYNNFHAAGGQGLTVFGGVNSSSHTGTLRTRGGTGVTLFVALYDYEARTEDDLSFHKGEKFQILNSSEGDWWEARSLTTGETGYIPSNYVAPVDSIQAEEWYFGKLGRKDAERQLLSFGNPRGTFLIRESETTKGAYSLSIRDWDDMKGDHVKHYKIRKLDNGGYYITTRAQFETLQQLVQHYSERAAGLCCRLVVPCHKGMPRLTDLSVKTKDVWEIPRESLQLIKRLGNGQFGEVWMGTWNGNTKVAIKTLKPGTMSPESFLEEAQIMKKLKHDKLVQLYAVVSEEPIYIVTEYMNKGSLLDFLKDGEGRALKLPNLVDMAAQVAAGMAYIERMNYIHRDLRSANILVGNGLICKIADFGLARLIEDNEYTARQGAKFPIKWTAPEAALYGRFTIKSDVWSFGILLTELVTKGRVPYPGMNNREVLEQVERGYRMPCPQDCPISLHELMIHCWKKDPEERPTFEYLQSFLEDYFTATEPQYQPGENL
Method: as §1

[7] = target: IKKα (Homo sapiens, UniProt O15111); assay: Kinase selectivity panel; type: biochemical; settings: read-out: percent of control activity of IKKα
Sequence of IKKα (O15111 whole entry, species assumed): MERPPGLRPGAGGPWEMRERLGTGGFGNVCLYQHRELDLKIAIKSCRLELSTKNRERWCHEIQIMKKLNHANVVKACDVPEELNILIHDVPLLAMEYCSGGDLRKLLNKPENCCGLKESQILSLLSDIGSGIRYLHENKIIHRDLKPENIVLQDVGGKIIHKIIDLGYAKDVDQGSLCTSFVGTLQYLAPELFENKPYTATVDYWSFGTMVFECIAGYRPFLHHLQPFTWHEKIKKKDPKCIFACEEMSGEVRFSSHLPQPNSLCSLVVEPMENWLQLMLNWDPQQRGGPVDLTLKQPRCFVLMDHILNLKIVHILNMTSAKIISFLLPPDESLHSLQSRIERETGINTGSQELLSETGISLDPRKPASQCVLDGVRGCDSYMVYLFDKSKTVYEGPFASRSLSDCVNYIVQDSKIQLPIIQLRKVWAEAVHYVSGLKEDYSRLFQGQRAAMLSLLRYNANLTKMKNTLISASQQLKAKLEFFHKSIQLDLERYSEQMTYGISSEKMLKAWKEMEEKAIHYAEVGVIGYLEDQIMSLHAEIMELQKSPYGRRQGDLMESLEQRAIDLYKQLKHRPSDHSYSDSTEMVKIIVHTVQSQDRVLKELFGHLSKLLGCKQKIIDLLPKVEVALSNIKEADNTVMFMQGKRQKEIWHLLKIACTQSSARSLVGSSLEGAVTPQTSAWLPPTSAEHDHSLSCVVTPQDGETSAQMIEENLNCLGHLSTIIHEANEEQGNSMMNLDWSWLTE
Method: as §1

[8] = test system: MEK kinase 1; assay: Kinase selectivity panel; type: biochemical; settings: 50 μM
Method: as §1

[9] = target: P38 MAP kinase 1 (Homo sapiens, UniProt Q16539); assay: Kinase selectivity panel; type: biochemical; settings: read-out: percent of control activity of P38 MAP kinase 1
Method: as §1

[10] = target: P38 MAP kinase 2 (Homo sapiens, UniProt Q15759); assay: Kinase selectivity panel; type: biochemical; settings: read-out: percent of control activity of P38 MAP kinase 2
Method: as §1

[11] = target: PDK1 (Homo sapiens, UniProt O15530); assay: Kinase selectivity panel; type: biochemical; settings: read-out: percent of control activity of PDK1
Method: as §1

[12] = target: PKA (Homo sapiens, UniProt P17612); assay: Kinase selectivity panel; type: biochemical; settings: read-out: percent of control activity of PKA
Method: as §1

[13] = target: PKBα (Homo sapiens, UniProt P31749); assay: Kinase selectivity panel; type: biochemical; settings: read-out: percent of control activity of PKBα
Method: as §1

[14] = target: PKBγ (Homo sapiens, UniProt Q9Y243); assay: Kinase selectivity panel; type: biochemical; settings: read-out: percent of control activity of PKBγ
Method: as §1

[15] = target: Protein kinase C α (Homo sapiens, UniProt P17252); assay: Kinase selectivity panel; type: biochemical; settings: read-out: percent of control activity of Protein kinase C α
Method: as §1

[16] = target: Protein kinase C ε (Homo sapiens, UniProt Q02156); assay: Kinase selectivity panel; type: biochemical; settings: read-out: percent of control activity of Protein kinase C ε
Method: as §1

[17] = target: cRaf (Homo sapiens, UniProt P04049); assay: Kinase selectivity panel; type: biochemical; settings: read-out: percent of control activity of cRaf
Sequence of cRaf (P04049 whole entry, species assumed): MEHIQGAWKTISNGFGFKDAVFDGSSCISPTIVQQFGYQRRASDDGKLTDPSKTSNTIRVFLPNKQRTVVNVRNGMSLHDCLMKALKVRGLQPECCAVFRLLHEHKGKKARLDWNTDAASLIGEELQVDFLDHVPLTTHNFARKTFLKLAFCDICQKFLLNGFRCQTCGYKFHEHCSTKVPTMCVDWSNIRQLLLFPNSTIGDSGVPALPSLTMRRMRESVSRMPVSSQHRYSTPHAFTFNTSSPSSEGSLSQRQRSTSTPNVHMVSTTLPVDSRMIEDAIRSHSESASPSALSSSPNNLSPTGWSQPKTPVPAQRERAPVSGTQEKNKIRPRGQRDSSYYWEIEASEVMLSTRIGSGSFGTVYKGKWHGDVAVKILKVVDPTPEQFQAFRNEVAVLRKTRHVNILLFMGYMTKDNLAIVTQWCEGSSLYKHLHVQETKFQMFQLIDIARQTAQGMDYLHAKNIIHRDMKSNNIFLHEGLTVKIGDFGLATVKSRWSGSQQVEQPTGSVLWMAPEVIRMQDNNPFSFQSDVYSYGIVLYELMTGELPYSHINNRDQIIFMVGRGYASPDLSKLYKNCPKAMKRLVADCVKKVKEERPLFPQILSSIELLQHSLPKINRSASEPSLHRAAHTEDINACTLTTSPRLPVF
Method: as §1

[18] = target: cSrc (Homo sapiens, UniProt P12931); assay: Kinase selectivity panel; type: biochemical; settings: read-out: percent of control activity of cSrc
Method: as §1

[19] = test system: diverse panel of 20 purified kinases; assay: Kinase selectivity panel, overall statement; type: biochemical; settings: 50 μM
Method: as §1
The panel included both serine/threonine kinases and tyrosine kinases, as well as several that are regulated by their interaction with lipids.

[20] = test system: C57BL/6 mice; assay: Acute DSS-colitis model of IBD; type: in vivo, mouse; settings: 2% DSS, 50 mg/kg oral daily
Method: FIG. 4. Effects of Compound 8 and Dipentum on the DAI in the acute DSS-colitis model. C57BL/6 mice were treated for 6 days as follows: normal drinking water and daily oral administration of PEG (No DSS), 2% DSS in the drinking water and daily oral administration of PEG (DSS alone); 2% DSS in the drinking water and daily oral administration of 50 mg/kg Compound 8 in PEG (DSS+Compound 8), or 2% DSS in the drinking water and daily oral administration of 50 mg/kg Dipentum in PEG (DSS+Dipentum). On the indicated day, the Disease Activity Index was calculated for each group. Values represent the mean±sd for 5-6 mice per group.
FIG. 5. Effects of Compound 8 and Dipentum on colon length in the acute DSS-colitis model. Mice from the experiment described in FIG. 4 were sacrificed on Day 6, and the colon was harvested from each animal and measured. Data represent the mean±sd colon length.
FIG. 6. Effects of Compound 8 and Dipentum on neutrophil infiltration into the colon in the acute DSS-colitis model. Myeloperoxidase (MPO) activity from the colons of the animals described in FIG. 4 was measured. Values the mean±sd MPO activity in units per gram of tissue.
FIG. 7. Effects of Compound 8 and Dipentum on colonic cytokine levels in the acute DSS-colitis model. Colon samples from mice described in FIG. 4 were extracted and assayed for the levels of the indicated cytokines Values represent the mean±sd amount of each cytokine in 4-5 samples per group.
Experiments were conducted with SK inhibitors using the dextran sulfate sodium (DSS) model of IBD. In these experiments, male C57BL/6 mice were provided with standard rodent diet and water ad libitum. After their acclimation, the animals were randomly divided into groups of 5 or 6 for DSS (40,000 MW from ICN Biomedicals, Inc., Aurora, Ohio)— and drug-treatment. […] The body weight of each animal was measured each day, and the Disease Activity Index (DAI) was scored for each animal on Days 4-6. On Day 6, the animals were sacrificed by cervical dislocation and the entire colon was removed and measured to the nearest 0.1 cm.

Sequence of Abl (P00519 whole entry, species assumed, the tested form may be a part): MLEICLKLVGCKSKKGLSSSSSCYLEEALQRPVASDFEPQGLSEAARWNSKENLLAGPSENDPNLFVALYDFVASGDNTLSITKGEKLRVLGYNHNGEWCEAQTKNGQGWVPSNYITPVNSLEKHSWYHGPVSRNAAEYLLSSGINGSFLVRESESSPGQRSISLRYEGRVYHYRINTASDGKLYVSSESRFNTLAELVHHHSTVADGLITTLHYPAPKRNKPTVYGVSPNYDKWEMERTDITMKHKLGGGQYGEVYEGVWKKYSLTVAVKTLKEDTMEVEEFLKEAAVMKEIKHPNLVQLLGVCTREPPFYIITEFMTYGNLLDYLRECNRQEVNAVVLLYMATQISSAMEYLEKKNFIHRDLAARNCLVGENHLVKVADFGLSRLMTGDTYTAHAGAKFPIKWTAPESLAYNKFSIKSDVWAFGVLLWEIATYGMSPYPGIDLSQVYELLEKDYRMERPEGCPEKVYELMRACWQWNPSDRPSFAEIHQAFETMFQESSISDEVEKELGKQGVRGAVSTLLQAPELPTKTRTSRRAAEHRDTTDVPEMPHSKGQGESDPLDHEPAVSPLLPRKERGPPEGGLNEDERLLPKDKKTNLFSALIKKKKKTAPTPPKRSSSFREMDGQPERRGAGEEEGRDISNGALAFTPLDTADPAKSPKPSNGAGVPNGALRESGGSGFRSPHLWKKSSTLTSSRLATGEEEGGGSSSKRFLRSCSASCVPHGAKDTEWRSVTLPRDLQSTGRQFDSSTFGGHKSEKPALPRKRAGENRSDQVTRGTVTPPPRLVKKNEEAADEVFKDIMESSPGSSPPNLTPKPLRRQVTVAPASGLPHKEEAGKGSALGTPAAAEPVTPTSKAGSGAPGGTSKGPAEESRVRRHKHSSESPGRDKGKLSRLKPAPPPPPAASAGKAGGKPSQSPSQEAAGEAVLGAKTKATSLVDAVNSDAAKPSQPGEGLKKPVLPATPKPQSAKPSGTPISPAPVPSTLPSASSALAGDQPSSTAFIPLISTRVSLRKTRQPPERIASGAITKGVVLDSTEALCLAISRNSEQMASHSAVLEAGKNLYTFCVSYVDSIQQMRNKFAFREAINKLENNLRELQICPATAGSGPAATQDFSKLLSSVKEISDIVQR

Clc1ccc(-c2csc(NCc3ccccc3)n2)cc1 [Compound 73, Benzyl-[4-(4-chloro-phenyl)-thiazol-2-yl]-amine]
remaining activity at 50 µM [1]: 100 ± 1% | remaining activity at 50 µM [2]: 100% | remaining activity at 50 µM [3]: 100% | remaining activity at 50 µM [4]: 102 ± 7% | remaining activity at 50 µM [5]: 99 ± 9% | remaining activity at 50 µM [6]: 102% | remaining activity at 50 µM [7]: 152 ± 7% | percent of control activity of MEK kinase 1 [8]: 104 ± 3% | remaining activity at 50 µM [9]: 88 ± 1% | remaining activity at 50 µM [10]: 101% | remaining activity at 50 µM [11]: 98 ± 6% | remaining activity at 50 µM [12]: 94 ± 4% | remaining activity at 50 µM [13]: 102 ± 1% | remaining activity at 50 µM [14]: 100 ± 10% | remaining activity at 50 µM [15]: 92 ± 1% | remaining activity at 50 µM [16]: 91 ± 2% | remaining activity at 50 µM [17]: 104 ± 1% | remaining activity at 50 µM [18]: 119 ± 6% | inhibition of the 20 kinases of the panel [19]: none of the 20 diverse kinases tested were significantly inhibited

CCCC(=O)Oc1ccc(C=CC(=O)Nc2nc(-c3ccc(Cl)cc3)cs2)cc1OC [Compound 8, Butyric acid 4-{2-[4-(4-chloro-phenyl)-thiazol-2-ylcarbamoyl]-vinyl}-2-methoxy-phenyl ester]
increase in colonic MPO activity [20]: markedly attenuated | colon length ([20]; Day 6): intermediate length | Disease Activity Index (DAI) ([20]; Days 4-6): reduced the intensity of the IBD manifestations
